The values below are quoted from earlier work in US8598145B2, “Mitochondrially delivered anti-cancer compounds” (priority 2008, dated 2013).

Data set [1] deals with Jurkat, HBT11, MCF7, MCF7-C3. The settings on record: Table II; cited from earlier work.
For data set [2], the system named is B16-F1/ nude mice. The settings on record: Kogure et al 2005; cited from earlier work.
Data set [3] relates to Jurkat, U937, Meso-2. The settings on record: cited from earlier work.
The test system of data set [4] is MCF7. The settings on record: Arya et al; cited from earlier work.
In data set [5] the test system is MDA-MB-435, MCF7. The settings on record: cited from earlier work.
Data set [6] relates to NB4, HT93. The settings on record: cited from earlier work.
Data set [7] relates to Jurkat, HBT1, MCF7, MCF7-C3, U937, Meso-2. The settings on record: cited from earlier work.

Turning to `Cc1c(C)c2c(c(C)c1OC(=O)C=CC(=O)O)CCC(C)(CCCC(C)CCCC(C)CCCC(C)C)O2` (centres unmarked) [Nr 3], the IC50 (usually the concentration that gives 50% inhibition) in data set [1] was 22 µM.

As for `Cc1c(C)c2c(c(C)c1OC(=O)C(=O)O)CCC(C)(CCCC(C)CCCC(C)CCCC(C)C)O2` (centres unmarked) [Nr 10], the “cytotoxicity in mice inoculated with B16-F1 melanoma cells” value in data set [2] is listed as “non-selective cytotoxicity”.

For `Cc1c(C)c2c(c(C)c1OC(=O)CC(=O)O)CCC(C)(CCCC(C)CCCC(C)CCCC(C)C)O2` (centres unmarked) [Nr 11], the “cytotoxicity in mice inoculated with B16-F1 melanoma cells” value in data set [2] was “non-selective cytotoxicity”.

For `Cc1c(C)c2c(c(C)c1NC(=O)CCC(=O)O)CCC(C)(CCCC(C)CCCC(C)CCCC(C)C)O2` (centres unmarked) [Nr 12], the IC50 in data set [3] is 13 µM.

On to `Cc1c(C)c2c(c(C)c1NC(=O)C=CC(=O)O)CCC(C)(CCCC(C)CCCC(C)CCCC(C)C)O2` (centres unmarked) [Nr 13], for which the half-maximal inhibitory concentration (IC50) in data set [3] was 2 µM.

Regarding `COC(=O)CCC(=O)Nc1c(C)c(C)c2c(c1C)CCC(C)(CCCC(C)CCCC(C)CCCC(C)C)O2` (centres unmarked) [Nr 14], in data set [3], the IC50 is more than 100 µM.

For the molecule `Cc1c(C)c2c(c(C)c1OC(=O)C(N)CCCCN)CCC(C)(CCCC(C)CCCC(C)CCCC(C)C)O2` (centres unmarked) [Nr 16], the IC50 in data set [4] is 12 µM.

In the case of `Cc1c(C)c2c(c(C)c1OCC(=O)O)CCC(C)(CCCC(C)CCCC(C)CCCC(C)C)O2` (centres unmarked) [Nr 21], the concentration giving a half-maximal response (EC50) (in general, the concentration that produces a half-maximal response) in data set [5] was 15 to 20 µg/mL.

Take `CC1=C(/C=C/C(C)=C/C=C/C(C)=C/C(=O)Oc2c(C)c(C)c3c(c2C)CCC(C)(CCCC(C)CCCC(C)CCCC(C)C)O3)C(C)(C)CCC1` (centres unmarked) [Nr 28]: the IC50 in data set [6] is 0.1 to 1 µM.

As for `Cc1cc(OC(=O)CCC(=O)O)c(C)c2c1OC(C)(CCCC(C)CCCC(C)CCCC(C)C)CC2` (centres unmarked) [Nr 32], the “IC50, printed relative to α-TOS” value in data set [7] is 50% of α-TOS.

With `Cc1cc(OC(=O)CCC(=O)O)cc2c1OC(C)(CCCC(C)CCCC(C)CCCC(C)C)CC2` (centres unmarked) [Nr 35], the concentration for half-maximal inhibition (IC50) in data set [1] is 66 µM.

With `Cc1cc(OC(=O)C=CC(=O)O)cc2c1OC(C)(CCCC(C)CCCC(C)CCCC(C)C)CC2` (centres unmarked) [Nr 36], the IC50 in data set [1] was 49 µM.

In the case of `Cc1cc(NC(=O)CCC(=O)O)cc2c1OC(C)(CCCC(C)CCCC(C)CCCC(C)C)CC2` (centres unmarked) [Nr 37], in data set [3], the IC50 is 20 µM.

As to `Cc1cc(NC(=O)C=CC(=O)O)cc2c1OC(C)(CCCC(C)CCCC(C)CCCC(C)C)CC2` (centres unmarked) [Nr 38], in data set [3], the 50% inhibitory concentration (IC50) is 9 µM.
